# Source: ChEMBL document CHEMBL1132745, “Diphenylsulfone muscarinic antagonists: piperidine derivatives with high M2 selectivity and improved potency” (Bioorg Med Chem Lett, 2000)
# Tests used:
# [1] = target: T1, Muscarinic acetylcholine receptor M1 (Homo sapiens, UniProt P11229); experiment: Binding affinity against Muscarinic acetylcholine receptor M1
# T1 sequence (P11229 whole entry): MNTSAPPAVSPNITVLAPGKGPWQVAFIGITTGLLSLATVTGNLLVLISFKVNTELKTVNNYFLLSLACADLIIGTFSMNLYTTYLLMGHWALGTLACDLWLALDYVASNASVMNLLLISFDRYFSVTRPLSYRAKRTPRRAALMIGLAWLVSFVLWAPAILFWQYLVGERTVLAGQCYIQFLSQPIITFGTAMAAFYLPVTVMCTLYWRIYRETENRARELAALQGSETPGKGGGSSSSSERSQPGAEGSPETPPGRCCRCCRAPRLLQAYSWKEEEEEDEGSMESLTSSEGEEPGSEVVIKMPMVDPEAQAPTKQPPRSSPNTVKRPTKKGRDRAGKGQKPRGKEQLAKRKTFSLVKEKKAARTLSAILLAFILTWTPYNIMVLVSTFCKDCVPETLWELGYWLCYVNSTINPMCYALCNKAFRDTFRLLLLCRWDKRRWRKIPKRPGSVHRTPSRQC
# [2] = target: T2, Muscarinic acetylcholine receptor M2 (Homo sapiens, UniProt P08172); experiment: Binding affinity against Muscarinic acetylcholine receptor M2
# T2 sequence (P08172 whole entry): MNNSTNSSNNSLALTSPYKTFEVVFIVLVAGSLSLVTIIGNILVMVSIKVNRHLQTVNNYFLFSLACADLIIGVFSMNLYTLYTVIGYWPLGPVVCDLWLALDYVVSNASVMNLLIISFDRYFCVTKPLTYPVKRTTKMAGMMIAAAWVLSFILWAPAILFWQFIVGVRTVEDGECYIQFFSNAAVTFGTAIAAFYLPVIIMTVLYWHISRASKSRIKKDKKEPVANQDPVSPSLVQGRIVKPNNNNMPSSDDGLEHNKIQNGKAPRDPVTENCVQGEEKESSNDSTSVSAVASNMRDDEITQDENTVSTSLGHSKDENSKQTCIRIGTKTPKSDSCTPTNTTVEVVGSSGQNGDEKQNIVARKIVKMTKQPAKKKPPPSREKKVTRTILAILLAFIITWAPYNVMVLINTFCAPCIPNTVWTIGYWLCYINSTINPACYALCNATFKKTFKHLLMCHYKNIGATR
# [3] = target: T3, Muscarinic acetylcholine receptor M5 (Homo sapiens, UniProt P08912); experiment: The compound was tested for the binding affinity against Muscarinic acetylcholine receptor M5
# T3 sequence (P08912 whole entry): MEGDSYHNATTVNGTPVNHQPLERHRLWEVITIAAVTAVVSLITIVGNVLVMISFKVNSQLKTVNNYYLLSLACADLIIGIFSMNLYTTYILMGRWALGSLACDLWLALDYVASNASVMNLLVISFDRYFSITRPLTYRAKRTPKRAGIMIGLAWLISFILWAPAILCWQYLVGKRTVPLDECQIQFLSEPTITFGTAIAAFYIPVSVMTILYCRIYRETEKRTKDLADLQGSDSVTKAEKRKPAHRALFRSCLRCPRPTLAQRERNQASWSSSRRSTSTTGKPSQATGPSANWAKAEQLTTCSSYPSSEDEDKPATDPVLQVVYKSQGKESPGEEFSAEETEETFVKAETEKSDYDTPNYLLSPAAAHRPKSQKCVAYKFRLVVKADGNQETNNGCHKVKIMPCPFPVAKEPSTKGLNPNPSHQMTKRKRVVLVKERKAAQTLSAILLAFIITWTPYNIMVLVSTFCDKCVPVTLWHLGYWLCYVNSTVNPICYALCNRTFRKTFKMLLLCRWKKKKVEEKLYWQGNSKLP
# [4] = target: T4, Muscarinic acetylcholine receptor M4 (Homo sapiens, UniProt P08173); experiment: Binding affinity against Muscarinic acetylcholine receptor M4
# T4 sequence (P08173 whole entry): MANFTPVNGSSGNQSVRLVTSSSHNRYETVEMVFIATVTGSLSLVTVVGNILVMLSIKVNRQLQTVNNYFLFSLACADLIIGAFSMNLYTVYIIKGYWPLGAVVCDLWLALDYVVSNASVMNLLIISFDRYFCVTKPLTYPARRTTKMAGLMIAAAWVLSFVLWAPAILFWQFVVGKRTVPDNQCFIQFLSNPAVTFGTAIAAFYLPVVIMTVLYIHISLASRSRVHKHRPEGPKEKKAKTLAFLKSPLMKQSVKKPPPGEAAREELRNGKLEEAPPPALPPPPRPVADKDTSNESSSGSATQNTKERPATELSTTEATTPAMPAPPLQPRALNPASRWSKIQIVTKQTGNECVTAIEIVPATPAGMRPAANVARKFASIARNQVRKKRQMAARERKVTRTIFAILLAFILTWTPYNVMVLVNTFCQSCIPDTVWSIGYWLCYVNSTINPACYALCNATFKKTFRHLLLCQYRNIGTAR
# [5] = target: Muscarinic acetylcholine receptor M3 (Homo sapiens, UniProt P20309); experiment: Binding affinity against Muscarinic acetylcholine receptor M3
# Muscarinic acetylcholine receptor M3, sequence (P20309 whole entry): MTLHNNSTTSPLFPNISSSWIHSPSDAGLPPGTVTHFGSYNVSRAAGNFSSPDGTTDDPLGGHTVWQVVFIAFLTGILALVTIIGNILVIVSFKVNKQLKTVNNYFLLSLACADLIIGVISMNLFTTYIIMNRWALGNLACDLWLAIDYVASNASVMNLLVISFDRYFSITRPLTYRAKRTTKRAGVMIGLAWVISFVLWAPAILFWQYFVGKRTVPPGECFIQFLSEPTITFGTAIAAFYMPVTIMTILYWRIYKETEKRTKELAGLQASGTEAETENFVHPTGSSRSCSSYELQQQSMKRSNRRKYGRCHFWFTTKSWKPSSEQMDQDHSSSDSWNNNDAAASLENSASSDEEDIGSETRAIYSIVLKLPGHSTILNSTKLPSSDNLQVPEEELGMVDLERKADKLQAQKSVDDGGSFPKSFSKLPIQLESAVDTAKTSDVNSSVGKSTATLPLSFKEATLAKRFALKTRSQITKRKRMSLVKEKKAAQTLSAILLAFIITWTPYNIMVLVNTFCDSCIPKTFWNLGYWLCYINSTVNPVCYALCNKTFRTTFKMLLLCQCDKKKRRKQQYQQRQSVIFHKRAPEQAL
Ki [1],Ki [2],Ki [3],Ki [4],Ki [5],SMILES
112 nM,2.78 nM,309 nM,14.8 nM,29.4 nM,COc1ccc([S@@+]([O-])c2ccc(C(C#N)N3CCN(C4CCCCC4)CC3)cc2)cc1 (some centres not stated)
113 nM,7.67 nM,–,12.7 nM,37 nM,COc1ccc([S@@+]([O-])c2ccc(C(C#N)C3CCN(C4CCCCC4)CC3)cc2)cc1 (some centres not stated)
253 nM,17.3 nM,–,18.4 nM,–,COc1ccc([S@+]([O-])c2ccc(C(C#N)N3CCN(C4CCCCC4)CC3)cc2)cc1 (some centres not stated)
104 nM,3.58 nM,–,17.9 nM,27.8 nM,COc1ccc([S@@+]([O-])c2ccc(C(=O)C3CCN(C4CCCCC4)CC3)cc2)cc1
0.68 nM,0.03 nM,–,0.09 nM,0.13 nM,C=C(c1ccc([S@@+]([O-])c2ccc(OC)cc2)cc1)C1CCN(C2CCCCC2)CC1
136 nM,7.14 nM,–,45.1 nM,58.8 nM,COc1ccc([S@+]([O-])c2ccc(C(C#N)C3CCN(C4CCCCC4)CC3)cc2)cc1 (some centres not stated)
69.5 nM,10.8 nM,–,15.2 nM,20.1 nM,COc1ccc([S@+]([O-])c2ccc(C(=O)C3CCN(C4CCCCC4)CC3)cc2)cc1
2.14 nM,0.057 nM,–,0.32 nM,0.38 nM,C=C(c1ccc([S@+]([O-])c2ccc(OC)cc2)cc1)C1CCN(C2CCCCC2)CC1
6 nM,1 nM,–,2.2 nM,0.97 nM,COc1ccc([S+]([O-])c2ccc(C(C)N3CCN(C4CCCCC4)CC3)cc2)cc1 (configuration not stated)
16.4 nM,1.3 nM,–,–,–,COc1ccc(S(=O)(=O)c2ccc(C(C#N)C3CCN(C4CCCCC4)CC3)cc2)cc1 (configuration not stated)
4.4 nM,0.37 nM,–,–,–,C=C(c1ccc(Sc2ccc(OC)cc2)cc1)C1CCN(C2CCCCC2)CC1
0.53 nM,0.14 nM,1.66 nM,0.07 nM,0.16 nM,COc1ccc([S+]([O-])c2ccc(C(C)C3CCN(C4CCCCC4)CC3)cc2)cc1 (configuration not stated)
2.8 nM,0.17 nM,–,0.33 nM,0.48 nM,C=C(c1ccc(S(=O)(=O)c2ccc(OC)cc2)cc1)C1CCN(C2CCCCC2)CC1
31.1 nM,3.07 nM,–,9.05 nM,13.8 nM,COc1ccc(S(=O)(=O)c2ccc(C(=O)C3CCN(C4CCCCC4)CC3)cc2)cc1
71.8 nM,7.3 nM,–,18.6 nM,6.8 nM,COc1ccc(S(=O)(=O)c2ccc(C(C#N)N3CCN(C4CCCCC4)CC3)cc2)cc1 (configuration not stated)
